# Measurements: patent US4269848A, “5-Substituted indan-2-carboxylic acid and functional derivatives” (Lipha, Lyonnaise Industrielle Pharmaceutique, priority 1976, dated 1981)
# Legend:
# [1] = system: spasms of pain caused by the intraperitoneal injection of a solution of acetic acid; assay: Analgesic activity, acetic acid induced spasms of pain (Koster et al.); format: in vivo; conditions: mouse, oral; dose reducing spasms of pain by 50%; read-out: AD50, Acetic Acid
# Experimental: B--Analgesic activity in the mouse was determined by the method of Koster et al. (Fed. Proc. 1959, Vol. 18, page 412). The active dose 50 (AD50) value for various compounds in accordance with the present invention was determined, namely, that dose which, when administered orally, reduces by 50% the spasms of pain caused by the intraperitoneal injection of a solution of acetic acid.
# [2] = system: carrageenin-induced edema; assay: Anti-inflammatory activity, carrageenin-induced edema test (Winter et al.); format: in vivo; conditions: rat, oral; dose inhibiting edema by 30%; read-out: AD30, Carrageenin
# Source text: The protection afforded, by oral administration of the compound to a rat against edema induced by injecting a suspension of carrageenin under the arch of the foot of the animal was investigated. The AD30 dose is that which inhibits the edema by 30%.
# [3] = system: platelets; assay: In vitro inhibition of platelet aggregation induced by collagen (Born); format: cell-based; conditions: read-out: minimal active concentration, Platelet Aggregation Induced By Collagen
# Experimental: E--The anti-inflammatory activity was also determined by the aggregation-inhibiting effect of the compounds in accordance with the present invention, in vitro, on platelets the aggregation of which was induced by collagen, in accordance with the method of Born (Journal of Physiology, 1962, Vol. 162, page 67). It is known that compounds which inhibit the activity or quantity of prostaglandin synthetase will inhibit the formation of prostaglandin PGE2 and the inflammatory and pyretic effect thereof. Since prostaglandin PGE2 also causes an increase in platelet aggregation, this test is an effective indication of anti-inflammatory and anti-pyretic activity due to inhibition of prostaglandin synthetase.
# [4] = system: erythema produced by ultra violet radiation; assay: Protective effect against erythema from ultra violet radiation (Winder et al.); format: in vivo, albino guinea pigs; conditions: Cavia porcellus; albino guinea pig, oral; amount reducing erythema by 50%; read-out: AD50, U.V.
# Experimental: D--The protective effect against inflammation resulting from exposure to radiation was determined in albino guinea pigs using the method of Winder et al (Arch. Inv. Pharmacodyn. 1958, Vol. 116, page 261). The AD50 value was determined for the test substance, namely the amount which, when administered to the animal orally, reduced by 50% the erythema produced by exposing the shaved dorsal skin of the guinea pig to ultra violet radiation.
# [5] = Experiment B: clinical case studies, analgesic activity, oral administration; format: in vivo; conditions: for Tolerance, Biological / Tolerance, Clinical: NAD = Nothing Abnormal Discovered
# Experimental: (§1) The following clinical experimentation was carried out to clinically test various compounds in accordance with the present invention for their anti-inflammatory, analgesic and platelet aggregation or clumping inhibition activites.
# The following case studies relate to the analgesic activity associated with the oral administration of methyl 5-(4'-dimethylaminobenzoyl)-indan-2-carboxylate.
# Diagnosis: Painful episode against a background of arthrosis of the cervical spine
# Treatment: 600 mg/day for 3 weeks
# Diagnosis: Pains in the right hip when pressure applied, secondary to aseptic osteonecrosis
# Treatment: 600 mg/day for 15 days
# Diagnosis: Arthrosis of the right hip resembling Paget's Disease
# [6] = Acute toxicity, LD 50 (oral route), mice; conditions: mouse, in vivo
# Source text: A--The substances are of low toxicity. For example, the LD 50 value (oral route), determined in mice, of various compounds in accordance with the present invention are shown in column A of Table I.
# [7] = system: platelet aggregation; assay: Experiment C: clinical case studies, platelet anti-aggregation activity, oral administration; format: in vivo
# Experimental: as §1
# The following case studies relate to the platelet anti-aggregation activity associated with the oral administration of 2'-(N,N-diethylaminoethyl) 5-(2'-thenoyl)-indan-2-carboxylate.
# [8] = Case 1, arthrosis of the cervical spine, oral 600 mg/day for 3 weeks
# [9] = Case 1, oral 600 mg/day for 3 weeks
# [10] = Case 2, hip pain secondary to aseptic osteonecrosis, oral 600 mg/day for 15 days
# [11] = Case 2, oral 600 mg/day for 15 days
# [12] = Case 3, arthrosis of the right hip, oral 600 mg/day for 15 days
# [13] = Case 3, oral 600 mg/day for 15 days
# [14] = Case 1, oral 200 mg, before treatment 100%
# [15] = Case 2, oral 200 mg, before treatment 100%
# [16] = Case 3, oral 200 mg, before treatment 100%
smiles,measurement,setting,value
COC(=O)C1Cc2ccc(C(=O)c3ccc(N(C)C)cc3)cc2C1 (centres unmarked) [Methyl 5-(4'-dimethylaminobenzoyl)-indan-2-carboxylate],ED50,[1],2.5 mg/kg
same,ED30,[2],12 mg/kg
same,minimal effective concentration,[3],0.25 µg/mL
same,ED50,[4],24 mg/kg
same,Conclusion,[5]; [8],Good result
same,Length of relief,[5]; [8],4 h
same,Time taken to relieve pain,[5]; [8],30 min
same,"Tolerance, Biological",[5]; [9],NAD
same,"Tolerance, Clinical",[5]; [9],NAD (Nothing Abnormal Discovered)
same,Conclusion,[5]; [10],Very good result
same,Length of relief,[5]; [10],4 h
same,Time to relieve pain,[5]; [10],less than 15 minutes
same,"Tolerance, Biological",[5]; [11],NAD
same,"Tolerance, Clinical",[5]; [11],NAD
same,Conclusion,[5]; [12],Good result
same,Length of relief,[5]; [12],2 h
same,Time to relieve pain,[5]; [12],30 min
same,"Tolerance, Biological",[5]; [13],NAD
same,"Tolerance, Clinical",[5]; [13],NAD
same,LD50,[6],1450 mg/kg
"CCN(CC)CCOC(=O)C1Cc2ccc(C(=O)c3cccs3)cc2C1 (centres unmarked) [2'-(N,N-diethylaminoethyl) 5-(2'-thenoyl)-indan-2-carboxylate]",second phase of aggregation with ADP,"[7]; Case 1, oral 200 mg",Inhibition
same,"Aggregation with collagen, 1 h after taking 200 mg",[7]; [14],0%
same,"Aggregation with collagen, 3 h after taking 200 mg",[7]; [14],0%
same,Aggregation with collagen 24 hours after the last dose,"[7]; Case 1, oral, 24 h after last dose, before treatment 100%",10%
same,second phase of aggregation with ADP,"[7]; Case 2, oral 200 mg",0%
same,"Aggregation with collagen, 1 h after taking 200 mg",[7]; [15],10%
same,"Aggregation with collagen, 3 h after taking 200 mg",[7]; [15],10%
same,Aggregation with collagen 24 hours after last dose,"[7]; Case 2, oral, 24 h after last dose, before treatment 100%",15%
same,second phase of aggregation with ADP,"[7]; Case 3, oral 200 mg",Inhibition
same,"Aggregation with collagen, 1 h after taking 200 mg",[7]; [16],0%
same,"Aggregation with collagen, 3 h after taking 200 mg",[7]; [16],0%
same,Aggregation with collagen 24 hours after last dose,"[7]; Case 3, oral, 24 h after last dose, before treatment 100%",0%
